Laboratory results as given in US20250281414A1, “HIGH DOSE ENDOXIFEN FORMULATIONS AND METHODS OF USE” (Atossa Therapeutics, Inc., priority 2022, published 2025).
Values after ≈ are worked out from the molar mass of the structure shown.

Experiments:
[1] = Solubility of (Z)-endoxifen at pH 6.8 with and without Polysorbate 80; assay type: physicochemical
Protocol: This example describes development of a dissolution assay to measure dissolution of endoxifen formulations. Since solubility of endoxifen decreases as pH becomes less acidic, as shown in EXAMPLE 1, additional experiments were performed to improve solubility of endoxifen in the pH 6.8 buffer solution. Polysorbate 80 (PS80), a nonionic surfactant, was added in varying concentrations to improve solubility and mimic an intestinal environment. Surfactants, such as polysorbate 80, create micelles in the medium that mimic the bile acid aggregates in the small intestine. These micelles facilitate the diffusion and transport of product into the medium.

[2] = pH-dependent solubility of (Z)-endoxifen; assay type: physicochemical; settings: for solubility: read-out: Solubility Z-form
Protocol: This example describes pH-dependent solubility of (Z)-endoxifen. (Z)-endoxifen was dissolved in solution under different pH conditions, and the solubility was measured. Since (Z)-endoxifen converts to the E-form under acidic conditions, the solubility of (Z)-endoxifen and (E)-endoxifen were measured independently, and a ratio of Z-form to E-form was determined.

solubility ([1]; aqueous buffer, pH 6.8 Buffer (Control), no Polysorbate 80): 0.00814 mg/mL (≈ 21.8 µM)
solubility ([1]; pH 6.8 buffer with 0.5% Polysorbate 80, pH 6.8, aqueous with cosolvent or surfactant or cyclodextrin): 0.0583 mg/mL (≈ 156 µM)
solubility ([1]; pH 6.8 buffer with 1.0% Polysorbate 80, pH 6.8, aqueous with cosolvent or surfactant or cyclodextrin): 0.0621 mg/mL (≈ 166 µM)
Z-form to E-form equilibration ([2]; pH 6.8): below the limit of detection
solubility ([2]; solution at pH 1.2, pH 1.2, simulated gastric fluid): 1.05 mg/mL (≈ 2800 µM)
solubility ([2]; solution at pH 4.5, pH 4.5, aqueous buffer): 0.25 mg/mL (≈ 668 µM)
solubility ([2]; solution at pH 5.0, pH 5, aqueous buffer): 0.203 mg/mL (≈ 543 µM)
solubility ([2]; solution at pH 5.5, pH 5.5, aqueous buffer): 0.0435 mg/mL (≈ 116 µM)
solubility ([2]; solution at pH 6.0, pH 6, aqueous buffer): 0.0278 mg/mL (≈ 74.4 µM)
solubility ([2]; solution at pH 6.8, pH 6.8, aqueous buffer): 0.00426 mg/mL (≈ 11.4 µM)
solubility ([2]; water): 0.00078 mg/mL (≈ 2.09 µM)
SMILES: CC/C(=C(\c1ccc(O)cc1)c1ccc(OCCNC)cc1)c1ccccc1 [(Z)-endoxifen]
